Activity data for nine compounds are collected here from patent US7452887B2, “Quinoline- and isoquinoline-based compounds exhibiting ATP-utilizing enzyme inhibitory activity, and compositions, and uses thereof” (Amphora Discovery Corporation, priority 2004, dated 2008).

The target in one experiment is MAPKAPK2 (Homo sapiens, UniProt P49137). Kind of experiment: HTS ATP-utilizing enzyme assay, off-chip mobility-shift (Caliper HTS 250). The following applies: test compound 10 μM, kinase listed = active (greater than six-sigma from the mean activity of inactive compounds). It counts as biochemical. The method in brief: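 Single-point screen of test compound at 10 μM against MAPKAPK2 with peptide substrate in HEPES pH 7.5 buffer (Triton X-100, BSA), 2.5 h at 20-22 °C. Substrate-to-phosphopeptide ratio was read by off-chip microfluidic mobility shift; EDTA and DMSO wells defined 100% and 0% controls, hits by six-sigma limits.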
Sequence of MAPKAPK2 (P49137 whole entry): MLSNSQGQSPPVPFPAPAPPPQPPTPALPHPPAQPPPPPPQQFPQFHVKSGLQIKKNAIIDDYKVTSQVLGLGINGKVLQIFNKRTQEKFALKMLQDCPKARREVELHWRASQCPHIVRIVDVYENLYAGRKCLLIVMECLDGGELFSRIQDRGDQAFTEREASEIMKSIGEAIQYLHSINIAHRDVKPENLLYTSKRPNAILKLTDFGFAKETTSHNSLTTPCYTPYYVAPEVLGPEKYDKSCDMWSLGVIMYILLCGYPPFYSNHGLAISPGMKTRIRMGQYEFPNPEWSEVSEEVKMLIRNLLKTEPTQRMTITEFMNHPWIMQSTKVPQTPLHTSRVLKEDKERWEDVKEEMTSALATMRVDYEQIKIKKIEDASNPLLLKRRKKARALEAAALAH

The next experiment has as its target T1, NEK2 (Homo sapiens, UniProt P51955).
T1 sequence (P51955 1-445): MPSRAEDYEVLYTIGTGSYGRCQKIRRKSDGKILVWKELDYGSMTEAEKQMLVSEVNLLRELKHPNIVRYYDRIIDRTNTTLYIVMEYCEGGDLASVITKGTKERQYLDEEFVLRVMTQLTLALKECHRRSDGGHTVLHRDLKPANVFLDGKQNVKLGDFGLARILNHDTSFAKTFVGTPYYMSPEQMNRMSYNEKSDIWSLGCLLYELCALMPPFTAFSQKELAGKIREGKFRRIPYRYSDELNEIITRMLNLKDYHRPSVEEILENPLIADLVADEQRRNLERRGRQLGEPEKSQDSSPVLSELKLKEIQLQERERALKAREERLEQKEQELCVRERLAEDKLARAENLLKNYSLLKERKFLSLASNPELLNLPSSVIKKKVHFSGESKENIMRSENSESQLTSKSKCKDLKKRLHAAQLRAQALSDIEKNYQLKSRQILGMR
The description is as above. It counts as biochemical. The following applies: test compound 10 μM, kinase listed = active (greater than six-sigma from the mean activity of inactive compounds). The method in brief: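 The ratio of peptide substrate to phosphorylated product, measured by microfluidic mobility shift, gave percent inhibition. Reactions contained enzyme, peptide substrate and compound at 10 μM in HEPES pH 7.5 buffer, ran 2.5 hrs at 20° C. to 22° C., and were quenched with EDTA.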

For the compound `CN1CCN(c2ccc(Nc3ccnc4ccc(-c5ccc(O)cc5)cc34)cc2)CC1` [4-(4-(4-(4-methylpiperazin-1-yl)phenylamino)quinolin-6-yl)phenol], on MAPKAPK2, the Activity entry was “MAPKAPK2”. As to `CN1CCN(c2ccc(Nc3ccnc4ccc(-c5ccc(F)cc5)cc34)cc2)CC1` [6-(4-fluorophenyl)-N-(4-(4-methylpiperazin-1-yl)phenyl)quinolin-4-amine], the Activity result is “NEK2” on NEK2 and “MAPKAPK2” at MAPKAPK2. For `COc1ccc(-c2ccc3nccc(Nc4ccc(N5CCNCC5)cc4)c3c2)cc1` [6-(4-methoxyphenyl)-N-(4-(piperazin-1-yl)phenyl)quinolin-4-amine], the Activity entry on MAPKAPK2 is given as “MAPKAPK2”.

For the compound `COc1ccc(-c2ccc3nccc(N(C)c4ccc(N5CCN(C)CC5)cc4)c3c2)cc1` [6-(4-methoxyphenyl)-N-methyl-N-(4-(4-methylpiperazin-1-yl)phenyl)quinolin-4-amine], the Activity entry on MAPKAPK2 is on record as “MAPKAPK2”.

Take `c1ccc(-c2ccc3nccc(Nc4ccc(N5CCNCC5)cc4)c3c2)cc1` [6-phenyl-N-(4-(piperazin-1-yl)phenyl)quinolin-4-amine]: the Activity result at MAPKAPK2 was “MAPKAPK2”. In the case of `CN1CCN(c2ccc(Nc3ccnc4ccc(-c5cccc6ccccc56)cc34)cc2)CC1` [N-(4-(4-methylpiperazin-1-yl)phenyl)-6-(naphthalen-1-yl)quinolin-4-amine], the Activity result at NEK2 was “NEK2”; on MAPKAPK2 it was “MAPKAPK2”. Taken in the same sequence, the figures for `CN1CCN(c2ccc(Nc3ccnc4ccc(-c5ccc6ccccc6c5)cc34)cc2)CC1` [N-(4-(4-methylpiperazin-1-yl)phenyl)-6-(naphthalen-2-yl)quinolin-4-amine] were “NEK2” and “MAPKAPK2”. Turning to `CN1CCN(c2ccc(Nc3ccnc4ccc(-c5ccncc5)cc34)cc2)CC1` [N-(4-(4-methylpiperazin-1-yl)phenyl)-6-(pyridin-4-yl)quinolin-4-amine], the Activity entry on NEK2 is on record as “NEK2”. As to `Cc1ccccc1-c1ccc2nccc(Nc3ccc(N4CCN(C)CC4)cc3)c2c1` [N-(4-(4-methylpiperazin-1-yl)phenyl)-6-o-tolylquinolin-4-amine], the Activity result at NEK2 is listed as “NEK2”; on MAPKAPK2, “MAPKAPK2”.
